The values below come from patent US7109182B2, “Synthetic oligomannosides, preparation and uses thereof” (Centre Hospitalier Regional Universitaire (CHRU), priority 1999, dated 2006).

The subject of one assay is Factor 34. Description: ELISA antigenic reactivity with antigenic factor 34. The format is binding, rabbit. Conditions: FIG. 8. As to the method: Monospecific polyclonal antibodies from Iatron were prepared by immunization of rabbits with whole yeasts then adsorbed by yeasts of heterologous species. Used as a battery, they enable identification by agglutination of the principal species of Candida implicated in human pathology. Each of these “factors” reacts with specific epitopes which were identified by any entire series of immunochemical studies performed in Japan. The results of these studies were summarized in the publication by S. Suzuki (Suzuki, S. et al., 1997, Curr. Top. Med. Mycol. 8: 57–70).
According to the immunochemical studies performed on the Iatron serums, this structure should react with Factor 34 (Suzuki, S. et al., 1997, Curr. Top. Med. 8: 57–70).

Assay [1] deals with antibodies of pool of serum from patients with Crohn's disease. Description: ELISA reactivity of pool of patient serums (ASCA test) with plates sensitized with synthetic antigen. Conditions: FIG. 9, pool of patient serums used to standardize the ASCA test. Format: binding. An excerpt:
It has been shown that one of the major epitopes against which was directed the ASCA response of patients with Crohn's diseases was a mannotetraose of formula Man α-1,3 Man α-1,2 Man α-1,2 Man (Sendid, B. et al., 1996, Clin. Diagn. Lab. Immunol. 3: 219–26; Young, M. et al., 1998, Glycoconj. J. 15: 815–22).

For another assay, the system named is C. albicans (SA-40). Description: Experimental model of vaginal candidiasis in the rat, inhibition of colonization. The format is in vivo. Conditions: for inhibition of colonization/infection (in words): administration 1 h, α control even at the maximum dose; for inhibition of colonization/infection (in words) / level of colonization (colony-forming units in vaginal secretions): 24 h and 48 h after inoculation; for level of colonization (colony-forming units in vaginal secretions): rat. As to the method: Ovarectomized female rats were maintained in pseudo-estrus by subcutaneous injection of 0.5 mg of estradiol benzoate every 2 days during the duration of the experiments. The animals were inoculated with 0.1 ml of a 10^7 yeast solution. The kinetics of the infection were monitored by determining the number of yeasts present in the vaginal secretions. 1 μl of secretion was collected with a calibrated plastic loop and spread over a dish of Sabouraud's agar plus antibiotics; the colony-forming units were counted after 48 hours of incubation at 28° C. […] 1: the β-1,2 mannotetraose (100 μg) was administered 1 hour before inoculation. 2: 1 hour after inoculation. 3: 1 h, 24 h and 48 h after inoculation. We used a model of vaginal candidiasis recognized by the international community and with which the most pertinent animal experiments to date have been performed. The results obtained in two experimental series were in perfect agreement. […] Even at the maximum dose, the α-1,2 oligomannosides administered in the same manner as control has no effect as shown in Table 3 below.

Assay [2] has as its system C. albicans strain 10261 (4277). The experiment in a line: Gastrointestinal colonization of neonatal mice by C. albicans, prophylactic synthetic tetramannosides. Format: in vivo, mouse. Conditions: for effect on gastrointestinal colonization by C. albicans (in words) / reduction in intestinal colonization (in words): mice; for effect on gastrointestinal colonization by C. albicans (in words): administration prior to inoculation, versus control; for reduction in intestinal colonization (in words): dose of 150 μg by gavage prior to inoculation; for degree of gastrointestinal colonization, median of CFUs: young mice, CFU/dropping 7 days after the inoculation. As to the method:
The mothers and their litters (10 to 15 baby mice/litter) were received on the 4th day of life (line CD-1® (Crl: CD-1® (ICR) BR, Charles River, Saint Aubin les Elbeuf, France). The animals were inoculated on the 6th day of life. There was always a separation from the mother for 3 hours prior to gavage and a one hour interval after inoculation.
Two strains of C. albicans were used, strain 4276 which expresses a small amount of β-1,2 oligomannosides at its surface and strain 4277 which expresses a large amount. Prior to each use, the strains were re-inoculated on Sabouraud-chloramphenicol (SC) agar from a culture stored at −80° C. in PBS-40% glycerol. After incubation for 24 hours at 35° C., the yeasts were washed 3 time in sterile physiological water (NaCl 0.9%, water φ) and the suspension was adjusted to 2×10^9/ml. The viability of the inoculum was verified for each experiment by sowing suitable dilutions of the yeast suspensions on SC agar in Petri dishes.
[…] The sugars were diluted in sterile water to obtain the desired concentration (see results) in a volume of 50 μl. Two independent experiments were carried out. In the first, 4 litters infected with strain 4277 were compared after administration, respectively, of water (litter 1), of 50 μg pf αMan (litter 2), 150 μg of βMan (litter 3) or 150 μg of 0αMan (litter 4). In the second experiment, four litters were infected either with strain 4276 (litters 1 and 2) or with strain 4277 (litters 3 and 4) after treatment with water (litters 1 and 3) or 50 μg of bMan (litters 2 and 4).
• Mortality: the cages were monitored once daily and the number of mice was recorded. • Gastrointestinal colonization: sequentially, beginning on day 7 after the inoculation, one dropping was collected from each mouse, ground in 100 μl of sterile water with a small piston adapted to function in 1.5-ml Eppendorf tubes and the total volume was inoculated on SC agar in a Petri dish. The number of colony forming units (CFU) was counted after 24 hours of incubation at 30° C. When the CFU density prevented counting, a score was attributed on the basis of the appearance of the culture so as to allow statistical comparisons: 2 or 1000 CFU, 3 or 10,000 CFU, 4 or 100,000 CFU. 7) Statistical Analysis
The gastrointestinal colonizations according to the infecting strain and according to the treatment preceding the inoculation were compared using a nonparametric test (Mann-Whitney or Kruskall-Wallis test, depending on the number of groups) using the program Statview 4.5 for Macintosh. The percentages of positive cultures or deaths on day 1 were compared with the Fisher exact test.

[3] abbreviates: strain 10261, 150 μg by gavage prior to inoculation.

In the case of “8-carboxyloctyl 2-O-(2-O-(3-O-α-D-mannopyranosyl)-α-D-mannopyranosyl)-α-D-mannopyranosyl)-α-D-mannopyranoside [III]”, the “antigenic reactivity with Factor 34 (in words)” value in the assay on Factor 34 is on record as “results observed correspond to the anticipated results”. For the same compound, in assay [1], the “fixation of patient antibodies (in words)” value is “affix according to a reaction dependent on the dose of synthetic antigen”.
In the case of `OC[C@H]1O[C@H](O[C@@H]2[C@@H](O[C@@H]3[C@@H](O[C@@H]4C(O)O[C@H](CO)[C@@H](O)[C@@H]4O)O[C@H](CO)[C@@H](O)[C@@H]3O)O[C@H](CO)[C@@H](O)[C@@H]2O)[C@@H](O)[C@@H](O)[C@@H]1O` (stereo partly drawn) [αM A N, D-Man α(1-2) D-Man α(1-2) D-Man α(1-2) D-Man], the “inhibition of colonization/infection (in words)” value with C. albicans (SA-40) (rat vaginal candidiasis) is recorded as “no effect”. The “level of colonization (colony-forming units in vaginal secretions)” value in the assay on C. albicans (SA-40) (SA-40, 50 γ 1 h, day 0) is given as more than 100; in the assay on C. albicans (SA-40) (SA-40, 50 γ 1 h, day 1), more than 100; with C. albicans (SA-40) (SA-40, 50 γ 1 h, day 2) it was 95 ± 2; with C. albicans (SA-40) (SA-40, 50 γ 1 h, day 5) it was 86 ± 4; in the assay with C. albicans (SA-40) (SA-40, 50 γ 1 h, day 7), 69 ± 6; in the assay on C. albicans (SA-40) (SA-40, 50 γ 1 h, day 14) it was 48 ± 4. Besides, the “level of colonization (colony-forming units in vaginal secretions)” value with C. albicans (SA-40) (SA-40, 50 γ 1 h, day 21) was 21 ± 4; in the assay on C. albicans (SA-40) (SA-40, 100 γ 1 h, day 0) it was more than 100; with C. albicans (SA-40) (SA-40, 100 γ 1 h, day 1), more than 100; with C. albicans (SA-40) (SA-40, 100 γ 1 h, day 2), 93 ± 3; in the assay with C. albicans (SA-40) (SA-40, 100 γ 1 h, day 5) it was 83 ± 5; with C. albicans (SA-40) (SA-40, 100 γ 1 h, day 7) it was 71 ± 6. The “level of colonization (colony-forming units in vaginal secretions)” value was 495 in the assay with C. albicans (SA-40) (SA-40, 100 γ 1 h, day 14) and 22.4 ± 3.4 in the assay with C. albicans (SA-40) (SA-40, 100 γ 1 h, day 21). Further, in assay [2], the “effect on gastrointestinal colonization by C. albicans (in words)” value was “did not modify the degree of gastrointestinal colonization”. In addition, in assay [2], the “reduction in intestinal colonization (in words)” value is on record as “not seen”. Further, in assay [2] (setting [3]), the “degree of gastrointestinal colonization, median of CFUs” value worked out at 258 CFU.
Regarding `OC[C@H]1O[C@@H](O[C@@H]2[C@H](O[C@@H]3[C@H](O[C@@H]4C(O)O[C@H](CO)[C@@H](O)[C@@H]4O)O[C@H](CO)[C@@H](O)[C@@H]3O)O[C@H](CO)[C@@H](O)[C@@H]2O)[C@@H](O)[C@@H](O)[C@@H]1O` (stereo partly drawn) [βM 4, D-Man β(1-2) D-Man β(1-2) D-Man β(1-2) D-Man], the “inhibition of colonization/infection (in words)” value was “reduced colonization by C. albicans in a very significant manner” in the assay on C. albicans (SA-40) (rat vaginal candidiasis) and “dose-dependent relation of inhibition of colonization/infection” in the assay with C. albicans (SA-40) (rat vaginal candidiasis, listed as synthetic β-1,2 oligomannosides). Besides, the “carrier state of C. albicans (in words)” value with C. albicans (SA-40) (rat vaginal candidiasis, at the end of the experiments) is “no longer be carriers of C. albicans”. In the assay on C. albicans (SA-40) (rat vaginal candidiasis, beginning on the first day of administration), the “change of level of colonization (in words)” value is recorded as “decreased by close to half”. For the same compound, the “level of colonization (colony-forming units in vaginal secretions)” value is reported as more than 100 with C. albicans (SA-40) (SA-40, 50 γ 1 h, day 0); more than 100 in the assay on C. albicans (SA-40) (SA-40, 50 γ 1 h, day 1); 88 ± 6 in the assay with C. albicans (SA-40) (SA-40, 50 γ 1 h, day 2); 62 ± 4 in the assay with C. albicans (SA-40) (SA-40, 50 γ 1 h, day 5); 57 ± 3 in the assay on C. albicans (SA-40) (SA-40, 50 γ 1 h, day 7); 23 ± 5 in the assay on C. albicans (SA-40) (SA-40, 50 γ 1 h, day 14). The “level of colonization (colony-forming units in vaginal secretions)” value with C. albicans (SA-40) (SA-40, 50 γ 1 h, day 21) is less than 1; in the assay with C. albicans (SA-40) (SA-40, 100 γ 1 h, day 0), more than 100; in the assay with C. albicans (SA-40) (SA-40, 100 γ 1 h, day 1) it was 87 ± 6; with C. albicans (SA-40) (SA-40, 100 γ 1 h, day 2), 83 ± 8; with C. albicans (SA-40) (SA-40, 100 γ 1 h, day 5) it was 40 ± 6; in the assay with C. albicans (SA-40) (SA-40, 100 γ 1 h, day 7) it was 54 ± 8. Further, the “level of colonization (colony-forming units in vaginal secretions)” value with C. albicans (SA-40) (SA-40, 100 γ 1 h, day 14) is 45 ± 14; with C. albicans (SA-40) (SA-40, 100 γ 1 h, day 21), less than 1; with C. albicans (SA-40) (SA-40, 150 γ 1 h, day 0), more than 100; in the assay with C. albicans (SA-40) (SA-40, 150 γ 1 h, day 1) it was 62 ± 7; in the assay on C. albicans (SA-40) (SA-40, 150 γ 1 h, day 2), 54 ± 0; with C. albicans (SA-40) (SA-40, 150 γ 1 h, day 5), 27 ± 3. Besides, the “level of colonization (colony-forming units in vaginal secretions)” value in the assay on C. albicans (SA-40) (SA-40, 150 γ 1 h, day 7) was 28 ± 4; in the assay with C. albicans (SA-40) (SA-40, 150 γ 1 h, day 14) it was 5.6 ± 3; in the assay on C. albicans (SA-40) (SA-40, 150 γ 1 h, day 21) it was less than 1. In addition, the “effect on gastrointestinal colonization by C. albicans (in words)” value in assay [2] is given as “very protective”; in assay [2] (listed as synthetic β-1,2 tetramannosides) it was “drastic, dose-dependent reduction in the number of yeasts found in the stools”; in assay [2] (listed as βMan) it was “significantly decreased the degree of colonization”. Moreover, the “reduction in intestinal colonization (in words)” value in assay [2] is “almost total reduction”. Besides, the “degree of gastrointestinal colonization, median of CFUs” value in assay [2] (strain 10261, 50 μg by gavage prior to inoculation) is on record as 48.5 CFU; in assay [2] (setting [3]), 5 CFU.
